Laboratory results from the supplement of paper PMC4862054.

How the values were obtained:
Settings in all cases: incubation time: 72 h
MDA-MB-231 = test: normalised viability (% of control), CellTiter-Blue; higher = more viable cells (about 100 = DMSO control)
Experimental: (§1)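 DSRT, CellTiter-Blue viability, 72 h incubation. Signal is normalised to DMSO and benzethonium chloride controls. Value is the normalised response at dose 3.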

MDA-MB-453 [1] = test: as above
Experimental: as §1

Hs578T [2] = test: as above
Experimental: as §1

MDA-MB-468 [3] = test: as above
Experimental: as §1

MDA-MB-436 = test: as above
Experimental: as §1

HCC1937 [4] = test: as above
Experimental: as §1

CAL-148 [5] = test: as above
Experimental: as §1

CAL-120 [6] = test: as above
Experimental: as §1

CAL-51 [7] = test: as above
Experimental: as §1

BT-474 = test: as above
Experimental: as §1

SK-BR-3 = test: as above
Experimental: as §1

HCC1143 = test: as above
Experimental: as §1

CAL-85-1 = test: as above
Experimental: as §1

DU-4475 [8] = test: as above
Experimental: as §1

MFM-223 = test: as above
Experimental: as §1

HCC1599 = test: as above
Experimental: as §1

HDQ-P1 = test: as above
Experimental: as §1

BT-549 [9] = test: as above
Experimental: as §1

MDA-MB-453 [10] = test: drug sensitivity score (DSS), CellTiter-Blue viability (DSS (AUC-based score)); higher = stronger viability inhibition; extreme values may be limits of the assay
Procedure, shortened: (§2)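 Drug sensitivity scores correspond to the area under the fitted dose-response curve. Breast cancer cell lines were incubated 72 h with compound at 5 or 9 concentrations in 384-well plates. Viability, read as CellTiter-Blue fluorescence at 560/590 nm, was normalised per plate to 0.1 % DMSO and a positive kill control.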

Hs578T [11] = test: as above
Procedure, shortened: as §2

MDA-MB-468 [12] = test: as above
Procedure, shortened: as §2

HCC1937 [13] = test: as above
Procedure, shortened: as §2

CAL-148 [14] = test: as above
Procedure, shortened: as §2

CAL-120 [15] = test: as above
Procedure, shortened: as §2

CAL-51 [16] = test: as above
Procedure, shortened: as §2

DU-4475 [17] = test: as above
Procedure, shortened: as §2

BT-549 [18] = test: as above
Procedure, shortened: as §2

Row | SMILES | normalised viability (MDA-MB-231; 100 nM) | normalised viability (MDA-MB-453 [1]; 10 nM) | normalised viability (Hs578T [2]; 100 nM) | normalised viability (MDA-MB-468 [3]; 100 nM) | normalised viability (MDA-MB-436; 100 nM) | normalised viability (HCC1937 [4]; 100 nM) | normalised viability (CAL-148 [5]; 10 nM) | normalised viability (CAL-120 [6]; 100 nM) | normalised viability (CAL-51 [7]; 10 nM) | normalised viability (BT-474; 100 nM) | normalised viability (SK-BR-3; 100 nM) | drug sensitivity score (MDA-MB-453 [10]) | drug sensitivity score (Hs578T [11]) | drug sensitivity score (MDA-MB-468 [12]) | drug sensitivity score (HCC1937 [13]) | drug sensitivity score (CAL-148 [14]) | drug sensitivity score (CAL-120 [15]) | drug sensitivity score (CAL-51 [16]) | drug sensitivity score (DU-4475 [17]) | drug sensitivity score (BT-549 [18]) | also measured
1 | C[C@@H](C(=O)O)c1ccc(-c2ccccc2)c(F)c1 [Tarenflurbil] | 90.8% | 99.5% | 72.9% | 104% | 122% | 109% | 90.2% | 98.6% | 118% | 109% | 84.8% | 1.49 | 0 | 0 | 0 | 0 | 0 | 0 | 0 | 0 | normalised viability (HCC1143; 100 nM): 98.8%; normalised viability (CAL-85-1; 10 nM): 91.5%; normalised viability (DU-4475 [8]; 10 nM): 114%; normalised viability (MFM-223; 100 nM): 101%; normalised viability (HCC1599; 100 nM): 103%; normalised viability (HDQ-P1; 10 nM): 91.8%; normalised viability (BT-549 [9]; 100 nM): 103%
2 | CC/C(=C(\c1ccccc1)c1ccc(OCCN(C)C)cc1)c1ccccc1 [Tamoxifen] | 91% | 257% | 91.7% | 122% | 97.5% | 93.7% | 108% | 106% | 92% | 112% | 90.7% | 2.6 | 0 | 3.95 | 0 | 0 | 0 | 0 | 0 | 1.73 | normalised viability (HCC1143; 100 nM): 126%; normalised viability (CAL-85-1; 10 nM): 102%; normalised viability (DU-4475 [8]; 10 nM): 94.1%; normalised viability (MFM-223; 100 nM): 95.2%; normalised viability (HCC1599; 100 nM): 92.5%; normalised viability (HDQ-P1; 10 nM): 104%; normalised viability (BT-549 [9]; 100 nM): 88.3%
3 | Nc1nc(Cl)nc2c1ncn2[C@@H]1O[C@H](CO)[C@@H](O)[C@@H]1F [Clofarabine] | 64.2% | 103% | 84.6% | 91.3% | 77% | 80% | 86.8% | 78.8% | 111% | 99.2% | 65% | 9.02 | 7.51 | 12.5 | 15.5 | 11.3 | 11.6 | 11.1 | 13.3 | 10.6 | normalised viability (HCC1143; 100 nM): 79.7%; normalised viability (CAL-85-1; 10 nM): 96.8%; normalised viability (DU-4475 [8]; 10 nM): 105%; normalised viability (MFM-223; 100 nM): 89.1%; normalised viability (HCC1599; 100 nM): 93.7%; normalised viability (HDQ-P1; 10 nM): 110%; normalised viability (BT-549 [9]; 100 nM): 85.6%
4 | COc1cc2c(N3CCN(C(=O)Nc4ccc(OC(C)C)cc4)CC3)ncnc2cc1OCCCN1CCCCC1 [Tandutinib] | – | – | – | – | – | – | – | – | – | – | – | 0 | 0 | 0 | 0 | 0.668 | 0 | 0 | 0 | 0 | normalised viability (MDA-MB-231; 10 nM): 108%; normalised viability (MDA-MB-453 [1]; 1 nM): 110%; normalised viability (Hs578T [2]; 10 nM): 94.5%; normalised viability (MDA-MB-468 [3]; 10 nM): 108%; normalised viability (MDA-MB-436; 10 nM): 102%; normalised viability (HCC1937 [4]; 10 nM): 98.4%; normalised viability (CAL-148 [5]; 1 nM): 98.1%; normalised viability (CAL-120 [6]; 10 nM): 110%; normalised viability (CAL-51 [7]; 1 nM): 109%; normalised viability (BT-474; 10 nM): 123%; normalised viability (SK-BR-3; 10 nM): 84.3%; normalised viability (HCC1143; 10 nM): 125%; normalised viability (CAL-85-1; 1 nM): 104%; normalised viability (DU-4475 [8]; 1 nM): 107%; normalised viability (MFM-223; 10 nM): 102%; normalised viability (HCC1599; 10 nM): 101%; normalised viability (HDQ-P1; 1 nM): 130%; normalised viability (BT-549 [9]; 10 nM): 106%
5 | CC(C)C[C@H](NC(=O)[C@H](CCc1ccccc1)NC(=O)CN1CCOCC1)C(=O)N[C@@H](Cc1ccccc1)C(=O)N[C@@H](CC(C)C)C(=O)[C@@]1(C)CO1 [Carfilzomib] | – | – | – | – | – | – | – | – | – | – | – | 27.8 | 27.6 | 26.8 | 27 | 18.8 | 23.9 | 19.6 | 22.8 | 29.2 | normalised viability (MDA-MB-231; 10 nM): 28.1%; normalised viability (MDA-MB-453 [1]; 1 nM): 96.8%; normalised viability (Hs578T [2]; 10 nM): 13.8%; normalised viability (MDA-MB-468 [3]; 10 nM): 19.5%; normalised viability (MDA-MB-436; 10 nM): 73.5%; normalised viability (HCC1937 [4]; 10 nM): 22.8%; normalised viability (CAL-148 [5]; 1 nM): 98.5%; normalised viability (CAL-120 [6]; 10 nM): 46.2%; normalised viability (CAL-51 [7]; 1 nM): 106%; normalised viability (BT-474; 10 nM): 87.2%; normalised viability (SK-BR-3; 10 nM): 33.2%; normalised viability (HCC1143; 10 nM): 53.4%; normalised viability (CAL-85-1; 1 nM): 104%; normalised viability (DU-4475 [8]; 1 nM): 93.5%; normalised viability (MFM-223; 10 nM): 14.8%; normalised viability (HCC1599; 10 nM): 109%; normalised viability (HDQ-P1; 1 nM): 109%; normalised viability (BT-549 [9]; 10 nM): 12.5%
6 | Cc1cc2c(F)c(Oc3ncnn4cc(OC[C@@H](C)O)c(C)c34)ccc2[nH]1 [Brivanib] | – | – | – | – | – | – | – | – | – | – | – | 0 | 0 | 0 | 0 | 0 | 0 | 0 | 0 | 0 | normalised viability (MDA-MB-231; 10 nM): 98.1%; normalised viability (MDA-MB-453 [1]; 1 nM): 102%; normalised viability (Hs578T [2]; 10 nM): 88.9%; normalised viability (MDA-MB-468 [3]; 10 nM): 103%; normalised viability (MDA-MB-436; 10 nM): 104%; normalised viability (HCC1937 [4]; 10 nM): 97.2%; normalised viability (CAL-148 [5]; 1 nM): 82.3%; normalised viability (CAL-120 [6]; 10 nM): 88.2%; normalised viability (CAL-51 [7]; 1 nM): 91.8%; normalised viability (BT-474; 10 nM): 102%; normalised viability (SK-BR-3; 10 nM): 75.5%; normalised viability (HCC1143; 10 nM): 78.8%; normalised viability (CAL-85-1; 1 nM): 105%; normalised viability (DU-4475 [8]; 1 nM): 96.3%; normalised viability (MFM-223; 10 nM): 90.1%; normalised viability (HCC1599; 10 nM): 96.2%; normalised viability (HDQ-P1; 1 nM): 94.8%; normalised viability (BT-549 [9]; 10 nM): 93.9%
7 | CCN(CC)CCOc1ccc(C(=C(Cl)c2ccccc2)c2ccccc2)cc1 [Clomifene] | 101% | 103% | 95.7% | 97.5% | 114% | 100% | 94% | 94.8% | 97.5% | 116% | 93.4% | 3.38 | 0 | 4.91 | 1.23 | 0 | 3.83 | 0 | 1.29 | 3.64 | normalised viability (HCC1143; 100 nM): 88.5%; normalised viability (CAL-85-1; 10 nM): 96.2%; normalised viability (DU-4475 [8]; 10 nM): 103%; normalised viability (MFM-223; 100 nM): 103%; normalised viability (HCC1599; 100 nM): 100%; normalised viability (HDQ-P1; 10 nM): 115%; normalised viability (BT-549 [9]; 100 nM): 118%
